Test: osmotic coefficient (dimensionless); mn = molality of the nth substance listed, in mol/kg
Settings: Liquid, isopiestic method

CCCC[N+](CC)(CC)CC.[Br-] [butyltriethyl ammonium bromide] + O
Settings	osmotic coefficient
283.15 K, m1 = 0.1033	0.9271
283.15 K, m1 = 0.1376	0.9231
283.15 K, m1 = 0.2187	0.9188
283.15 K, m1 = 0.2974	0.9175
283.15 K, m1 = 0.3319	0.9169
283.15 K, m1 = 0.4688	0.92
283.15 K, m1 = 0.555	0.9241
283.15 K, m1 = 0.679	0.9288
283.15 K, m1 = 0.78	0.934
283.15 K, m1 = 0.8485	0.9393
283.15 K, m1 = 0.9497	0.9464
288.15 K, m1 = 0.1039	0.9158
288.15 K, m1 = 0.1569	0.904
288.15 K, m1 = 0.2793	0.8916
288.15 K, m1 = 0.3789	0.8853
288.15 K, m1 = 0.4818	0.884
288.15 K, m1 = 0.6069	0.8837
288.15 K, m1 = 0.6983	0.8853
288.15 K, m1 = 0.8052	0.8899
288.15 K, m1 = 0.8847	0.8929
288.15 K, m1 = 1.028	0.8989

CCCC[N+](CC)(CC)CCCC.[Br-] [dibutyldiethylammonium bromdie] + O
Settings	osmotic coefficient
283.15 K, m1 = 0.1034	0.9261
283.15 K, m1 = 0.1376	0.9232
283.15 K, m1 = 0.2189	0.9178
283.15 K, m1 = 0.2978	0.9163
283.15 K, m1 = 0.3324	0.9156
283.15 K, m1 = 0.4702	0.9172
283.15 K, m1 = 0.5576	0.9198
283.15 K, m1 = 0.6825	0.924
283.15 K, m1 = 0.7842	0.9289
283.15 K, m1 = 0.8544	0.9328
283.15 K, m1 = 0.9569	0.9393
288.15 K, m1 = 0.1041	0.9139
288.15 K, m1 = 0.1562	0.908
288.15 K, m1 = 0.2772	0.8982
288.15 K, m1 = 0.3749	0.8947
288.15 K, m1 = 0.4763	0.8941
288.15 K, m1 = 0.6002	0.8934
288.15 K, m1 = 0.6897	0.8963
288.15 K, m1 = 0.7971	0.8989
288.15 K, m1 = 0.8741	0.9038
288.15 K, m1 = 1.012	0.9132

CC(C)C[N+](CC(C)C)(CC(C)C)CC(C)C.[Br-] [tetra-iso-butyl ammonium bromide] + O
Settings	osmotic coefficient
283.15 K, m1 = 0.1035	0.9253
283.15 K, m1 = 0.1376	0.9231
283.15 K, m1 = 0.2192	0.9167
283.15 K, m1 = 0.2986	0.9138
283.15 K, m1 = 0.3332	0.9133
283.15 K, m1 = 0.4724	0.9129
283.15 K, m1 = 0.5608	0.9146
283.15 K, m1 = 0.6871	0.9179
283.15 K, m1 = 0.7904	0.9217
283.15 K, m1 = 0.8617	0.9249
283.15 K, m1 = 0.9658	0.9307
288.15 K, m1 = 0.1041	0.9142
288.15 K, m1 = 0.1569	0.9038
288.15 K, m1 = 0.2795	0.8908
288.15 K, m1 = 0.3804	0.8818
288.15 K, m1 = 0.4856	0.877
288.15 K, m1 = 0.6127	0.8752
288.15 K, m1 = 0.7082	0.8728
288.15 K, m1 = 0.8192	0.8747
288.15 K, m1 = 0.9012	0.8766
288.15 K, m1 = 1.05	0.8804

CCC(C)[N+](C(C)CC)(C(C)CC)C(C)CC.[Br-] (stereo not given) [tetra-sec-butyl ammonium bromide] + O
Settings	osmotic coefficient
283.15 K, m1 = 0.1033	0.927
283.15 K, m1 = 0.1377	0.9222
283.15 K, m1 = 0.2195	0.9154
283.15 K, m1 = 0.2991	0.9123
283.15 K, m1 = 0.3339	0.9114
283.15 K, m1 = 0.4732	0.9114
283.15 K, m1 = 0.5619	0.9128
283.15 K, m1 = 0.6887	0.9157
283.15 K, m1 = 0.7927	0.919
283.15 K, m1 = 0.8651	0.9213
283.15 K, m1 = 0.9705	0.9261
288.15 K, m1 = 0.1042	0.913
288.15 K, m1 = 0.1572	0.9021
288.15 K, m1 = 0.2811	0.8859
288.15 K, m1 = 0.3824	0.8772
288.15 K, m1 = 0.4912	0.867
288.15 K, m1 = 0.6212	0.8632
288.15 K, m1 = 0.7168	0.8624
288.15 K, m1 = 0.8295	0.8638
288.15 K, m1 = 0.9119	0.8663
288.15 K, m1 = 1.06	0.8713

CCCC[N+](CCCC)(CCCC)CCCC.[Br-] [tetrabutylammonium bromide] + O
Settings	osmotic coefficient
283.15 K, m1 = 0.1035	0.9257
283.15 K, m1 = 0.138	0.9204
283.15 K, m1 = 0.2197	0.9146
283.15 K, m1 = 0.2995	0.9111
283.15 K, m1 = 0.3343	0.9104
283.15 K, m1 = 0.4739	0.9101
283.15 K, m1 = 0.5629	0.9111
283.15 K, m1 = 0.6903	0.9136
283.15 K, m1 = 0.7953	0.916
283.15 K, m1 = 0.8682	0.918
283.15 K, m1 = 0.9751	0.9217
288.15 K, m1 = 0.1045	0.9107
288.15 K, m1 = 0.1582	0.8964
288.15 K, m1 = 0.2837	0.8776
288.15 K, m1 = 0.3864	0.8681
288.15 K, m1 = 0.4954	0.8596
288.15 K, m1 = 0.628	0.8539
288.15 K, m1 = 0.7262	0.8512
288.15 K, m1 = 0.8429	0.8501
288.15 K, m1 = 0.9276	0.8517
288.15 K, m1 = 1.079	0.8566

— the NIST ThermoML archive (doi:10.1021/je900216m)
